Consider two compounds from ChEMBL document CHEMBL3758098, “3-(Dipropylamino)-5-hydroxybenzofuro[2,3-f]quinazolin-1(2H)-one (DPA-HBFQ-1) plays an inhibitory role on breast cancer cell growth and progression” (Eur J Med Chem, 2016).

In general, IC50 refers to the concentration needed to halve the response being measured.

Data set [1] in a line: Cytotoxicity against human MCF10A cells assessed as growth inhibition at 1 uM after 5 days by MTT assay relative to vehicle-treated control. The data set is classed as cell-based. The conditions noted are these: mcf-10a, 120 h. For orientation: Tetrazolium dyes change colour on reduction, which living cells bring about.
The test system of data set [2] is MCF7. The experiment in a line: Cytotoxicity against human MCF7 cells assessed as growth inhibition at 1 uM after 5 days by MTT assay relative to vehicle-treated control. The conditions noted are these: MCF7, 120 h, read-out: GI. In kind it is functional.
Data set [3] has as its system MDA-MB-231. In words: Cytotoxicity against human MDA-MB-231 cells assessed as growth inhibition at 1 uM after 5 days by MTT assay relative to vehicle-treated control. The data set is classed as functional.
Data set [4] in a line: Cytotoxicity against rat R2C cells assessed as growth inhibition by MTT assay. The data set is classed as functional, cell-based.
Data set [5] in a line: Cytotoxicity against human MCF10A cells assessed as cell viability after 5 days by MTT assay. Particulars: MCF-10A, 120 h. The data set is classed as cell-based.
Another data set relates to HeLa. In words: Cytotoxicity against human HeLa cells assessed as growth inhibition by MTT assay. In kind it is functional, cell-based.
For data set [6], the system named is MDA-MB-231. The experiment in a line: Cytotoxicity against human MDA-MB-231 cells assessed as cell viability after 5 days by MTT assay. The data set is classed as functional, cell-based. The conditions noted are these: MDA-MB-231, 120 h.
The target in data set [7] is DNA topoisomerase 2-alpha (Homo sapiens) (UniProt P11388). Particulars: 50 uM.
Chain of DNA topoisomerase 2-alpha (Homo sapiens) (P11388 whole entry): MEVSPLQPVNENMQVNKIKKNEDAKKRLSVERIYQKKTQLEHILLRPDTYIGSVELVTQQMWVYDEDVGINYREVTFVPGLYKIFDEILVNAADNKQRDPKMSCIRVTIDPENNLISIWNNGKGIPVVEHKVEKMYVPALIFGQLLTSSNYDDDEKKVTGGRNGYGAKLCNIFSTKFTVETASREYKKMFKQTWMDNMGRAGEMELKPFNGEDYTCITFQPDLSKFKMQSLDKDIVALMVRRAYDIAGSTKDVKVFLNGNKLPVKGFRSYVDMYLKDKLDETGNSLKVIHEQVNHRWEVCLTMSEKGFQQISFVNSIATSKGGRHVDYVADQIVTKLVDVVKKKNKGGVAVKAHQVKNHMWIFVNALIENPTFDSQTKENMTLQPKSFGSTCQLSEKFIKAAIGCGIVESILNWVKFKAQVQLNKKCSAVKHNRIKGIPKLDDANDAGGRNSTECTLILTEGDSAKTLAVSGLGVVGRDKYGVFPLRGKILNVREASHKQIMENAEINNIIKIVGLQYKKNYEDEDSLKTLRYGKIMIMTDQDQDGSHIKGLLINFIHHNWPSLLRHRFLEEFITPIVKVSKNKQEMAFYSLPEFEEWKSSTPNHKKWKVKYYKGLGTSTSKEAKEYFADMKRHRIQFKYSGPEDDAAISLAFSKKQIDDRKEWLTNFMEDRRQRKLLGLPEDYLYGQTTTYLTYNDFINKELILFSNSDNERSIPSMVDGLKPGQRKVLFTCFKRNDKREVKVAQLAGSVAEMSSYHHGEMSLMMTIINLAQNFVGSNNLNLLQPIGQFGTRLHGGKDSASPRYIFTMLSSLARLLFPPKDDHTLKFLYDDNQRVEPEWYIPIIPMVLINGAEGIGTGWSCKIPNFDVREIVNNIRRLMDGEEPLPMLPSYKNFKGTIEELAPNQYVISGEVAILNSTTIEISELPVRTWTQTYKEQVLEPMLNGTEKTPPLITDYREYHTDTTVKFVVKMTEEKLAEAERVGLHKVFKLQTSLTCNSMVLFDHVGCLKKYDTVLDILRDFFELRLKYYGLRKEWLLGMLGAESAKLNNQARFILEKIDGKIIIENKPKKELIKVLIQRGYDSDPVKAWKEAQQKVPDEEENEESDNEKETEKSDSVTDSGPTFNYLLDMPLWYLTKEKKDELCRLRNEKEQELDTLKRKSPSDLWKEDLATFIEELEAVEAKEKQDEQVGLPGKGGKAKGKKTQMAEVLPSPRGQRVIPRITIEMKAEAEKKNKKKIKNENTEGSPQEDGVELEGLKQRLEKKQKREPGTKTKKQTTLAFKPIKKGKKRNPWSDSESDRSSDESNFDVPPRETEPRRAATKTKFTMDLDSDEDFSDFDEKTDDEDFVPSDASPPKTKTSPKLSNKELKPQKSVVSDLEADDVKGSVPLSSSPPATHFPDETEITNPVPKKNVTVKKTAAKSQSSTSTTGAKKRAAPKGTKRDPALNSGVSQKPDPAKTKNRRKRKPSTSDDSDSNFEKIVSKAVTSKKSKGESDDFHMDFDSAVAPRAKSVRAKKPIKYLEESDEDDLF
Description: Inhibition of human topoisomerase 2 assessed as decatenation of kDNA at 50 uM after 30 mins by agarose gel electrophoresis
Another data set relates to Ishikawa. In words: Cytotoxicity against human Ishikawa cells assessed as growth inhibition by MTT assay. The data set is classed as functional, cell-based.
Data set [8] concerns the target T1, DNA topoisomerase 1 (Homo sapiens) (UniProt P11387).
T1 sequence (whole entry): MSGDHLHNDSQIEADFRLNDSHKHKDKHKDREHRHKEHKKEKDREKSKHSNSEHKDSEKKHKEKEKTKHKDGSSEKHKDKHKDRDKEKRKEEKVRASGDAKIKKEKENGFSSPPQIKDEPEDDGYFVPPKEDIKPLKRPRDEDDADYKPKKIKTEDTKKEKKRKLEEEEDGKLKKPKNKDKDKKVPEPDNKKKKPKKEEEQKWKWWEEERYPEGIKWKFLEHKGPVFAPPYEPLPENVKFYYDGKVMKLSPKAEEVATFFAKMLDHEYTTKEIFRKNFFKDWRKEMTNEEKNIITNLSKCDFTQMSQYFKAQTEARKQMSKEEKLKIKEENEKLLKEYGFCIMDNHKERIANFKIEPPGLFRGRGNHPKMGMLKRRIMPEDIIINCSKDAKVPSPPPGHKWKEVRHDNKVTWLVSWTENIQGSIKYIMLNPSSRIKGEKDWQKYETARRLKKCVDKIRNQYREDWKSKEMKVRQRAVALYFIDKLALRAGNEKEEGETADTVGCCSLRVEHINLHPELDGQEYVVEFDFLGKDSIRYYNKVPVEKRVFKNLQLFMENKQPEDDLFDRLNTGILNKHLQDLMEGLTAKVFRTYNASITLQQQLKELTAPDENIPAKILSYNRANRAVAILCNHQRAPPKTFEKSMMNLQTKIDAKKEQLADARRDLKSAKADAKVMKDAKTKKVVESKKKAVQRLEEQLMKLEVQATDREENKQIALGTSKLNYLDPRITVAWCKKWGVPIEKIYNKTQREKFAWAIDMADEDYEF
In words: Inhibition of recombinant human topoisomerase 1 assessed as relaxation of supercoiled pHOT1 at 50 uM after 30 mins by agarose gel electrophoresis.

Data set [9] relates to MCF7. The experiment in a line: Cytotoxicity against human MCF7 cells assessed as cell viability after 5 days by MTT assay. In kind it is functional, cell-based. The conditions noted are these: MCF7, 120 h.
Data set [10] concerns the target DNA topoisomerase 2-alpha (Homo sapiens) (UniProt P11388). Particulars: 10 uM.
Description: Inhibition of human topoisomerase 2 assessed as decatenation of kDNA at 10 uM after 30 mins by agarose gel electrophoresis
A further data set relates to HepG2. The experiment in a line: Cytotoxicity against human HepG2 cells assessed as growth inhibition by MTT assay. The data set is classed as functional, cell-based.
A short description of data set [11]: Cytotoxicity against human MCF-7 TR1 cells assessed as cell colony formation after 14 days by crystal violet staining-based assay. In kind it is functional. Particulars: MCF-7 TR1, 336 h.
In data set [12] the target is T1, DNA topoisomerase 1 (Homo sapiens). The experiment in a line: Inhibition of recombinant human topoisomerase 1 assessed as relaxation of supercoiled pHOT1 at 10 uM after 30 mins by agarose gel electrophoresis.

Molecules are shown by their SMILES. Activity calls are given as the source filed them. No cut-off for these calls is given here.

In the case of `CCN(CC)c1nc2c(OC)cc3c4ccccc4oc3c2c(=O)[nH]1`, the Activity entry in [1] is listed as “Non-toxic”. Besides, the inhibition of growth at 1 µM in the data set with MCF7 [2] is 15%. Also, the “growth inhibition (GI)” value in the data set on MDA-MB-231 [3] is “Active”.

Consider `Cc1c2ccncc2c(C)c2c1[nH]c1ccccc12` [ELLIPTECINE], for which the half-inhibitory concentration (IC50) in data set [4] turned out to be 2000 nM; in data set [5], 1200 nM; with HeLa it was 1000 nM; in the data set with MDA-MB-231 [6] it was 1820 nM; in the data set on Ishikawa, 1500 nM; with MCF7 [9], 1250 nM. Also, the 50% inhibitory concentration (IC50) stood at 2900 nM with HepG2 and 1750 nM in [11]. The inhibition result in data set [7], in data set [8], in [10] and in data set [12] was “Active” throughout.
